From PubChem BioAssay AID1259408 (Genetic Toxicology Data Bank (GENE-TOX), 2018) come the findings set out here.

Calls of active or inactive are those of the source. No rule for the calls is given here.

For this data set, the system named is GENE-TOX genotoxicity assays, various organisms and cells. Nature of the data set: GENE-TOX mutagenicity studies.

As to `CCC1=C(O)C(=O)CC1`, the mutagenic call is reported as “no conclusion” (Species/Cell Type: Human lymphocytes, Assay Type: Sister-chromatid exchange (SCE) in vitro, Assay Code: SCLT, Evaluation Type: Evaluation B (Post-1980)) and “no conclusion” (Species/Cell Type: Human, Assay Type: Sister-chromatid exchange (SCE) in vitro, Assay Code: SC1T, Evaluation Type: Evaluation B (Post-1980)).

As to `O=C(Cn1ccnc1[N+](=O)[O-])NCc1ccccc1`, the mutagenic call (Species/Cell Type: Mammalian polychromatic erythrocytes, Assay Type: Micronucleus test, chromosome aberrations, Assay Code: MNT+, Evaluation Type: Evaluation B (Post-1980)) was “active; positive”.

In the case of `CN(N=O)C(=O)Nc1ccccc1`, the mutagenic call (Species/Cell Type: Nonhuman, Assay Type: Sister-chromatid exchange (SCE) in vitro, Assay Code: SC2+D, Dose Response: With dose response, Evaluation Type: Evaluation B (Post-1980)) was “active; positive”.

For the molecule `Oc1ccc2cccnc2c1`, where the note is “Species/Cell Type: Salmonella typhimurium (one or more of the five standard strains: TA98, TA100, TA1535, TA1537, and TA1538), Assay Type: Histidine reverse gene mutation, Ames assay, Assay Code: SAL-, Evaluation Type: Evaluation A (Pre-1980)”, the mutagenic call is “inactive; negative”.

Regarding `c1ccc2c(c1)-c1ccccc1C1OC21` (stereo unspecified), the mutagenic call is, setting by setting: (Species/Cell Type: Mouse prostate cells, Assay Type: Cell transformation, Assay Code: CTM-, Evaluation Type: Evaluation A (Pre-1980)) “inactive; negative”; (Species/Cell Type: Syrian hamster embryo (SHE) cells, Assay Type: Cell transformation, clonal assay, Assay Code: CTC+, Evaluation Type: Evaluation A (Pre-1980)) “active; positive”.

On to `O=C1c2ccccc2C(=O)c2c1ccc(O)c2O`, for which the mutagenic call was “active; positive” (Species/Cell Type: Allium cepa, Assay Type: Chromosome aberrations, Assay Code: ALC+, Evaluation Type: Evaluation A (Pre-1980)) and “no conclusion” (Species/Cell Type: Bacillus subtilis (H17 vs M45), Assay Type: Rec-assay, spot test, DNA effects (bacterial DNA repair), Assay Code: REWT, Evaluation Type: Evaluation A (Pre-1980)).

Regarding `CC(=O)Nc1ccc2c(c1)Cc1cccc(O)c1-2`, the mutagenic call was “active; positive” (Species/Cell Type: Escherichia coli polA (W3110 vs P3478), Assay Type: Rec-assay, DNA effects (bacterial DNA repair), Assay Code: RE2+, Evaluation Type: Evaluation A (Pre-1980)); “no conclusion” (Species/Cell Type: Escherichia coli polA (W3119 vs P3478), Assay Type: Rec-assay, DNA effects (bacterial DNA repair), Assay Code: RE1T, Evaluation Type: Evaluation A (Pre-1980)); “inactive; negative” (Species/Cell Type: Human diploid fibroblasts, Assay Type: Unscheduled DNA synthesis (UDS) in vitro, DNA effects, Assay Code: UDH-, Evaluation Type: Evaluation A (Pre-1980)); “inactive; negative” (Species/Cell Type: Saccharomyces cerevisiae, Assay Type: Mitotic recombination or gene conversion, Assay Code: YEH-, Evaluation Type: Evaluation A (Pre-1980)); “active; positive” (Species/Cell Type: Salmonella typhimurium (one or more of the five standard strains: TA98, TA100, TA1535, TA1537, and TA1538), Assay Type: Histidine reverse gene mutation, Ames assay, Assay Code: SAL+*, Activation: With metabolic activation, Evaluation Type: Evaluation A (Pre-1980)).

Take `O=[N+]([O-])c1ccc(/C=N\O)o1`: the mutagenic call runs as follows: (Species/Cell Type: Escherichia coli WP2, Assay Type: Tryptophan reverse gene mutation, Assay Code: WP2-, Evaluation Type: Evaluation A (Pre-1980)) “inactive; negative”; (Species/Cell Type: Escherichia coli WP2 UVRA, Assay Type: Tryptophan reverse gene mutation, Assay Code: WPU+D, Dose Response: With dose response, Evaluation Type: Evaluation A (Pre-1980)) “active; positive”; (Species/Cell Type: Salmonella typhimurium (one or more of the five standard strains: TA98, TA100, TA1535, TA1537, and TA1538), Assay Type: Histidine reverse gene mutation, Ames assay, Assay Code: SAL+, Evaluation Type: Evaluation A (Pre-1980)) “active; positive”.

As to `CC1CO1` (stereo unspecified), the mutagenic call (Species/Cell Type: Chinese hamster ovary (CHO) cells, Assay Type: Forward gene mutation at the HPRT locus, Assay Code: CHO+, Evaluation Type: Evaluation B (Post-1980)) was “active; positive”; the mutagenic call (Species/Cell Type: Drosophila melanogaster, Assay Type: Sex-linked recessive lethal gene mutation, Assay Code: SRL+, Evaluation Type: Evaluation A (Pre-1980)) was “active; positive”; the mutagenic call (Species/Cell Type: Neurospora crassa, Assay Type: Reverse gene mutation, Assay Code: NER+, Evaluation Type: Evaluation A (Pre-1980)) was “active; positive”; the mutagenic call (Species/Cell Type: Nonhuman, Assay Type: Sister-chromatid exchange (SCE) in vivo, Assay Code: SC3T, Evaluation Type: Evaluation B (Post-1980)) is “no conclusion”; the mutagenic call (Species/Cell Type: Rodents, Sex: Male, Assay Type: Dominant lethal test, Assay Code: DLT-, Evaluation Type: Evaluation A (Pre-1980)) is “inactive; negative”; the mutagenic call (Species/Cell Type: Schizosaccharomyces pombe, Assay Type: Reverse gene mutation, Assay Code: YEZ+, Evaluation Type: Evaluation A (Pre-1980)) was “active; positive”. In addition, where the note is “Species/Cell Type: Syrian hamster embryo (SA7/SHE) cells, Assay Type: Cell transformation, viral enhanced, Assay Code: CT7+, Evaluation Type: Evaluation A (Pre-1980)”, the mutagenic call is “active; positive”. Moreover, the call (Species/Cell Type: Nonhuman, Assay Type: In vivo carcinogenicity studies, Assay Code: CCG+, Evaluation Type: Evaluation A (Pre-1980)) was “active; positive”.

Turning to `C/C=C(C)/C=C/C=C(C)/C=C/C1=C(C)CCCC1(C)C`, the mutagenic call (Species/Cell Type: Human, Assay Type: Sister-chromatid exchange (SCE) in vitro, Assay Code: SC1+D, Dose Response: With dose response, Evaluation Type: Evaluation B (Post-1980)) is “active; positive”.
